For series [1], the target named is T1, 388V-424Y-428A transcription factor (Homo sapiens, UniProt P03372, I424Y/L428A/M388V).
T1 construct: fragment B=ER amino acids 258-554; expressed in transfected cells; host or cells: HeLa cells transduced with Av3 or gutless adenoviral vector
T1 sequence (P03372 258-554 M388V/I424Y/L428A): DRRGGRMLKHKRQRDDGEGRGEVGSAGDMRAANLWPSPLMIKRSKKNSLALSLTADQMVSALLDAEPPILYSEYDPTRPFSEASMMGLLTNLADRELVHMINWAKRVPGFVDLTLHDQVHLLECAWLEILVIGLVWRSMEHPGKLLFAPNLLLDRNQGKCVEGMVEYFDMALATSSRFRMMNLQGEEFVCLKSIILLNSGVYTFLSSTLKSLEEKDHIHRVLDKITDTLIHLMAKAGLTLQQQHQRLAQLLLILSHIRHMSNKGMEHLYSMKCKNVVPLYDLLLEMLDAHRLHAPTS
As to the kind of experiment: In vitro inducible luciferase expression with gutless adenoviral transcription factor vector in Hela cells. The class given is cell-based.

The target of the next series is T2, wild-type ER (Homo sapiens, UniProt P03372).
T2 construct: expressed in transfected cells; host or cells: COS-7
T2 sequence (P03372 1-595): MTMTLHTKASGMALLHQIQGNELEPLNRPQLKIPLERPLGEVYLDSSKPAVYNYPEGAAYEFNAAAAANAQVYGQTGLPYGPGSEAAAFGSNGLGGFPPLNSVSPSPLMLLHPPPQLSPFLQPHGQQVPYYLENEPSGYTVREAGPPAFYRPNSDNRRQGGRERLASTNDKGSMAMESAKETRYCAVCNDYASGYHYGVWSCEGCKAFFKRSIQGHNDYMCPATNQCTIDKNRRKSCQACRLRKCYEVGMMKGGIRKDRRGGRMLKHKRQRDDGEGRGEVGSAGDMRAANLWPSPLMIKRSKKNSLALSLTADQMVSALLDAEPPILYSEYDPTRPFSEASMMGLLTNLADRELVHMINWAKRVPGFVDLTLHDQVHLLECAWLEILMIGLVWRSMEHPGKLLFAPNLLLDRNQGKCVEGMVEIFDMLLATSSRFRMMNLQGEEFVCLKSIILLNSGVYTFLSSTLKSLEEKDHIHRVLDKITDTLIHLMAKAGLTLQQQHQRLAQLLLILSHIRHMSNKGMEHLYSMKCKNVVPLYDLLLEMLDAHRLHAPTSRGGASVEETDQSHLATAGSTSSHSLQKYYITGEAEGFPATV
In words: Inhibition of E2 activity on wild-type ER, COS-7 cells with pHEGO and ERE luciferase reporter. The format is cell-based. As to conditions: IC50 ± STDEV, pHEGO and pERETkLuc, E2 (3 nM) + 0.1 to 1000 nM compound. Here is the method:
For transfection, 0.5 microgram of pERE2tkluc reporter plasmid, 20 ng of pHEGO, and 0.5 microgram of pCIneo inert carrier DNA were combined with 60 microliter serum-free DMEM and 5 microliter Qiagen Superfect transfection reagent, vortexed for 10s, and set at room temperature for 10 min. Each sample was diluted with 350 microliters of steroid-free media, mixed, and added to each well. Following 2 hr 30 min incubation at 37° C., cells were washed once with Dulbecco's phosphate buffered saline (DPBS), and refed with steroid-free media. […] Approximately 24 hr after treatment, cells were washed once with DPBS, then 200 microliter of reporter lysis buffer was added per well and frozen at −80° C. Cells were thawed at room temperature on an orbital shaker for 1 hr 30 min. A 10 microliter aliquot of lysate was transferred to 96 well opaque plates, and relative luciferase units (RLU) determined on a luminometer using the appropriate firefly luciferase substrate.
Note that the nonspecific activity is a noncompetable element in the assay system.
In order to dissolve them completely, all the solutions were warmed in 55° C. or boiled water bath for 10 to 20 min before use. The DMSO in cell culture medium was maintained to 0.01% for all the drug concentration tested as well as the vehicle control.

The next series has as its target T3, Av3-388V/424Y/428A (Homo sapiens, UniProt P03372, I424Y/L428A/M388V).
T3 construct: fragment B=ER amino acids 258-554; expressed in transfected cells; host or cells: HeLa cells transduced with Av3 or gutless adenoviral vector
T3 sequence (P03372 258-554 M388V/I424Y/L428A): T1 sequence (P03372 258-554 M388V/I424Y/L428A)
As to the kind of experiment: Transactivation on adenoviral (Av3)-delivered ER variant, luciferase in HeLa cells. The format is cell-based. The note with it: 100 nM test compound, 24 hrs (FIG. 5). The text has this: Xu et al., Molecular Therapy, 3:262-273, 2000.

A further series addresses T4, ER-LBD 388V/424Y/428A (Homo sapiens, UniProt P03372, I424Y/L428A/M388V).
T4 construct: expressed in transfected cells; host or cells: HeLa
T4 sequence (P03372 311-547 M388V/I424Y/L428A): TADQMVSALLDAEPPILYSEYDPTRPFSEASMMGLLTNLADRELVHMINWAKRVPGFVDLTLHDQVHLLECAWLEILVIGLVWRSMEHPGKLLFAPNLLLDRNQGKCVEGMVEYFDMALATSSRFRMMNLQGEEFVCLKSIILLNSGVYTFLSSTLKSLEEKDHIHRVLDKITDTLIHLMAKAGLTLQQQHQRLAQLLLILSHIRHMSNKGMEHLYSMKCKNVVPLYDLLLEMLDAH
In words: ER-LBD 388V/424Y/428A transactivation, cotransfection luciferase reporter assay in HeLa cells. The class given is cell-based. Here is the method:
(§1) In order to evaluate the ability of the fusion proteins C7LBD A, B, and the related LBD mutants to regulate transgene expression, a standard co-transfection reporter assay was performed. A reporter construct, henceforth known as 6×2C7pGL3Luc, containing six copies of a directly repeated C7 binding site (6×2C7) inserted upstream of an SV40 promoter fragment and reporter gene encoding firefly luciferase (pGL3Pro; Promega) was transfected along with the designated fusion protein and assayed as described below. Note the consensus C7 binding site is 5′-GCG TGG GCG-3′.
(§2) Cultured cells (HeLa, Cos, Hep3B or other) were seeded at 5×10^4 cells/well in a 24 well plate prior to the day of transfection in DMEM Phenol-free media, supplemented with L-glutamine and 5% (v/v) charcoal-dextran stripped Fetal Bovine serum (sFBS). Cells were transfected using the Qiagen Superfect Transfection method. For each well 1 μg of total DNA, containing 0.5 μg luciferase reporter plasmid (6×2C7pGL3Luc), 0.1 μg of chimeric activator DNA (e.g., C7LBDA, C7LBDB, or mutants thereof ), and 0.4 μg of an inert carrier plasmid DNA (p3Kpn), was mixed with 60 μL of DMEM phenol-free/serum free media, and 5 μL of Superfect reagent. In general, about 10 ng to about 0.5 μg of chimeric activator DNA was used for each well. […]

Series [2] concerns the target T5, 388V-424Y-428A transcription factor system (Homo sapiens, UniProt P03372, I424Y/L428A/M388V).
T5 construct: fragment B=ER amino acids 258-554; expressed in transfected cells; host or cells: HeLa cells transduced with Av3 or gutless adenoviral vector
T5 sequence (P03372 258-554 M388V/I424Y/L428A): T1 sequence (P03372 258-554 M388V/I424Y/L428A)
In words: In vivo regulation of endostatin transgene, gutless vectors, serum endostatin ELISA. Also noted: species or system C57BL/6 mice. As to conditions: 50 ug/animal IP; for Endostatin Levels: vectors 5×10^10 particles/mouse each, n = 3. Here is the method: To address this issue of sustained induction, a second in vivo study was performed.

The target of a further series is T6, ER-LBD 421V/428A (Homo sapiens, UniProt P03372, L428A/M421V).
T6 construct: expressed in transfected cells; host or cells: HeLa
T6 sequence (P03372 311-547 M421V/L428A): T4 sequence (P03372 311-547 M388V/I424Y/L428A) with V78M, M111V, Y114I
In words: ER-LBD 421V/428A transactivation, cotransfection luciferase reporter assay in HeLa cells. The format is cell-based. As to conditions: p6x2C7Luc reporter, 0.003 to 1000 nM, mean of two or more experiments, read-out: EC50 ± STDEV. Here is the method:
as §1, §2

The next series has as its target T7, Av3-421/428 (Homo sapiens, UniProt P03372, L428A/M421V).
T7 sequence (P03372 258-554 M421V/L428A): T1 sequence (P03372 258-554 M388V/I424Y/L428A) with V131M, M164V, Y167I
In words: Transactivation on adenoviral (Av3)-delivered ER variant, luciferase in HeLa cells. The text has this:
For example, the ER LBD mutants of the present invention were constructed into a replication defective adenoviral vector (Av3) backbone DNA sequence so that this regulatory system could be delivered into cells for clinical application and testing. An Av3 vector containing a series of C7 binding sites linked to an SV40 minimal promoter and luciferase transgene (C7-SV40-luc) was also constructed and delivered simultaneously with each of the Av3 ER LBD mutant vectors. The cells were then exposed to the corresponding ligand to test the capability of the adenoviral-delivered ER mutants to respond to their corresponding ligands and then mediate the transcription of the luciferase transgene in the context of an adenoviral vector. […] Xu et al., Molecular Therapy, 3:262-273, 2000.

Molecules are shown by their SMILES. Residue numbers refer to the chain shown, from its start. “And” between values parts separate entries of the source, which are not always exact repeats. Equal entries are not always repeated.

For `CN(C)CCOc1ccc(/C(=C(/CC2CC3CCC2C3)c2ccccc2)c2ccc(O)cc2)cc1` (stereo not drawn) [LBB938, 4-((1Z))-3-bicyclo[hept-2-yl-1-{4-[2-(dimethylamino)ethoxy]phenyl}-2-phenylprop-1-enyl)phenol], in series [1] (100 nM ligand vs without ligand), the “Fold Induction” value was 90 fold. Moreover, the “Luciferase Expression Levels (Relative Light Units)” value in series [1] ((+) induced with 100 nM ligand, mean +/− standard error (n = 4)) is 3284939 +/− 116076 Relative Light Units. Moreover, the IC50 on wild-type ER worked out at 388 nM. The “luciferase activity over the basal level” value at Av3-388V/424Y/428A is recorded as 19 fold. Moreover, the EC50 at ER-LBD 388V/424Y/428A (HeLa cells cotransfected with pC7ERLBD 388V/424Y/428A and p6x2C7Luc, 0.1 to 1000 nM, mean of two or more experiments, read-out: EC50 ± STDEV) is 28.4 nM and ~28 nM. In addition, the “sensitivity of mutant ER LBD 388V/424Y/428A to LBB 938 relative to estrogen” value on ER-LBD 388V/424Y/428A (ratio of EC50 values) was “approximately eight”. Moreover, the “endostatin expression, result in words” value in series [2] is listed as “induce endostatin expression”. The results for the “Endostatin Levels” value in series [2] (Day 1), in series [2] (Day 3) and in series [2] (Day 7) were 6074 ± 3536 ng/mL, 2332 ± 333 ng/mL and 600 ± 72 ng/mL, respectively.
In turn, `COC(=O)NC/C(=C(/c1ccc(O)cc1)c1ccc(OCCN(C)C)cc1)c1ccccc1` [LBB551, Carbamic acid, [(2Z)-3-[4-[2-(dimethylamino)ethoxy]phenyl]-3-(4-hydroxyphenyl)-2-phenyl-2-propenyl]-, methyl ester] came in with a melting point of 122 to 123 °C. Further, the concentration giving a half-maximal response (EC50) at ER-LBD 421V/428A was 4.89 nM. The IC50 at wild-type ER turned out to be 955 nM.
Regarding `COC(=O)NC/C(=C(\c1ccc(O)cc1)c1ccc(OCCN(C)C)cc1)c1ccccc1` [LBC081, Carbamic acid, [(2E)-3-[4-[2-(dimethylamino)ethoxy]phenyl]-3-(4-hydroxyphenyl)-2-phenyl-2-propenyl]-, methyl ester], the melting point lay within 161 to 162 °C. For the same compound, the EC50 on ER-LBD 421V/428A was determined as 11.7 nM. Besides, the IC50 at wild-type ER came out at 845 nM. Also, the “response relative to basal activity / fold induction” value on Av3-421/428 (100 nM test compound, 24 hrs (FIG. 5)) is “three”. Also, the fold induction at 0.1 µM on Av3-421/428 (read-out: response relative to basal activity / fold induction) turned out to be 3.
